# Reference: patent US10782295B2, “Cysteine-reactive ligand discovery in proteomes” (THE SCRIPPS RESEARCH INSTITUTE, priority 2013, dated 2020)
# Columns and labels:
# WT-ZAK = molecular target: T1, WT-ZAK (Homo sapiens, UniProt Q9NYL2); test: gel-based ABPP with IA-rhodamine probe; format: binding; settings: 10, 50 and 100 μM, 30 min; HEK-293T lysate
# T1 construct: Full-length cDNA encoding human ZAK-13 (BC001401); expressed in transfected cells
# From the text: The gel signals for IA-labeling of WT-ZAK were blocked by pretreatment with HNE over a concentration range that closely matched the HNE-sensitivity profile observed for C22 in competitive isoTOP-ABPP experiments (FIG. 4b, compare to FIG. 3a). […] Considering further that C22 is predicted to reside adjacent to the ATP-binding loop of ZAK, we postulated that the HNE-induced loss of kinase activity might be due to blockade of ATP-binding.
# Full-length cDNA encoding human ZAK-13 (BC001401) in pOTB7 was purchased from Open BioSystems and subcloned into pFLAG-CMV-6c (Sigma-Aldrich). ZAK-C22A and ZAK-K45M mutants were generated by QuikChange site-directed mutagenesis using the primer 5′-[…]-3′ (SEQ ID NO:1) and 5′-[…]-3′ (SEQ ID NO:2) and their complements. Wild-type and mutant ZAK were cloned into a modified pCLNCX retroviral vector. Retrovirus was prepared by taking 3.0 μg of each of pCLNCX and pCL-Ampho vectors and […], of FuGENE IID reagent (Roche) to transfect 60% confluent HEK-293T cells. […]
# FLAG-tagged wild-type and C22A mutant ZAK were immunoprecipitated from HEK-293T cells ([…]). […] Gel samples were separated by SDS-PAGE (50 μL of sample/lane) and visualized in-gel using a Hitachi FMBio II flatbed laser-induced fluorescence scanner (MiraiBio, Alameda, Calif.). […]
# JNK pathway activation = test: Western blotting of phospho-JNK in C22A-ZAK-transfected HEK-293T cells; format: cell-based, human
# Description: We next set out to assess the functional effects of HNE modification of ZAK in human cells. HEK-293T cells were stably transfected with cDNAs for WT-ZAK, C22A-ZAK, or K45M-ZAK and the activation state of their MAPK signaling pathways was monitored by western blotting with anti-phosphoprotein antibodies. […] We next treated cells with H2O2 (1 mM, 30 min) to induce oxidative stress, a process that is known to activate the JNK pathway^41,42. H2O2 treatment stimulated JNK activity in both WT- and C22A-ZAK-transfected cells (but not K45M-ZAK-transfected cells), with WT-ZAK cells showing the greater level of activation (FIG. 5b,c). […] We interpret these findings to indicate the existence of both ZAK-dependent and ZAK-independent pathways for HNE modulation of JNK activation (FIG. 5d). By modifying C22 on ZAK, HNE blocks the contribution that this kinase makes to the activation of the JNK pathway. […]
# Mouse and rabbit monoclonal antibodies against phospho-ERK 1/2 (Thr202/Tyr204), phosphor-SAPK/JNK (Thr183/[…]), phosphor-p38 MAPK (Thr180/[…]) and total ERK 1/2, SAPK/JNK and p38 MAPK were purchased from Cell Signaling Technology. […] Protein band intensities were quantified by ImageJ8 and ratios of phosphor-MAPK over total MAPK were computed. […]
# T1 sequence (Q9NYL2 1-455 isoform Q9NYL2-2): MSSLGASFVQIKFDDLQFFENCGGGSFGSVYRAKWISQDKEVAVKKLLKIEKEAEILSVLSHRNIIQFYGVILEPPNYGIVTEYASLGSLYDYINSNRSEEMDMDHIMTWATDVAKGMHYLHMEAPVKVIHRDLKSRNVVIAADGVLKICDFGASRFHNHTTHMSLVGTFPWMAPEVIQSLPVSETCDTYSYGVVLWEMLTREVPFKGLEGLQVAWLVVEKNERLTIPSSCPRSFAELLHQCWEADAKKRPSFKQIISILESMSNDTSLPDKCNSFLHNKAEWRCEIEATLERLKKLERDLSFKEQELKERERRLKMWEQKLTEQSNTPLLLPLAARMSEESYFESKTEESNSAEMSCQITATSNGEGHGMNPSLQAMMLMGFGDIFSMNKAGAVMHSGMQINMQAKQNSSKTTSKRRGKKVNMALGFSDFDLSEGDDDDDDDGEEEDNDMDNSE
smiles,measurement,setting,value
"CCCCCC(O)/C=C/C=O (stereo not drawn) [4-HNE, 4-Hydroxynonenal]",gel signals for IA-labeling of WT-ZAK after pretreatment,WT-ZAK,blocked
same,"JNK activation by HNE alone, C22A-ZAK-transfected cells","JNK pathway activation; 50 or 100 μM, 60 min",dramatic concentration-dependent activation of JNK
same,"H2O2-dependent JNK activation, C22A-ZAK cells","JNK pathway activation; pre-treatment 100 μM, 30 min, then H2O2 1 mM, 30 min",hyper-activating JNK activity
